According to ChEMBL document CHEMBL5724558, “Image-based profiling of drug vulnerabilities in CRC organoids” (2024):
Where “and” joins values, the source holds several entries; their conditions need not be identical. Identical values can stand only once.

Key:
Format in all cases: functional, Homo sapiens
Set-up in all cases: dose or concentration left out as unconfirmed
Colon cancer organoid [1] = experiment: (§1) Image-based profiling of donated chemical probes and chemogenomic kinase set in O06 CRC organoid. Image analysis is performed on the sum area metric, and the data were normalized to the DMSO control. After imaging the organoid viability is measured using the OneGloEX Luciferase Assay System. The normalized viability data and sum area are reported.
Colon cancer organoid [2] = experiment: as §1, with “O09” for “O06”
Colon cancer organoid [3] = experiment: as §1, with “O21” for “O06”

For `CC(=O)c1cc(-c2ccccc2OCC2CC2)c2ncccn12`, the “Cell Viability” value (Colon cancer organoid [1]; Replication number 1) was 193.281% and 129.503%, the “Cell Viability” value (Colon cancer organoid [1]; Replication number 2) was 159.696% and 98.6989% and the “Cell Viability” value (Colon cancer organoid [2]; Replication number 1) was 135.678% and 108.037%. For the same compound, the “Cell Viability” value (Colon cancer organoid [2]; Replication number 2) was 170.672% and 99.2081%, the “Cell Viability” value (Colon cancer organoid [3]; Replication number 1) was 119.426% and 104.637% and the “Cell Viability” value (Colon cancer organoid [3]; Replication number 2) was 103.612% and 93.9737%.
